Experimental data taken from ChEMBL document CHEMBL4507288 (2021).
The source made the active and inactive calls. The rule behind the calls is not given here.

How the values were obtained:
[1] = target: Amyloid-beta precursor protein (Homo sapiens, UniProt P05067); assay: Aβ42 inhibition assay
[2] = test system: Tyrosine-protein kinase ABL1 (Homo sapiens), P00519 [F317L]; details: Compound concentration 1000.0 nM
[3] = target: ALK tyrosine kinase receptor (Homo sapiens) (UniProt Q9UM73); details: Compound concentration 1000.0 nM
[4] = target: Mitogen-activated protein kinase kinase kinase 5 (Homo sapiens) (UniProt Q99683); details: Compound concentration 1000.0 nM
[5] = target: Cytoplasmic tyrosine-protein kinase BMX (Homo sapiens) (UniProt P51813); details: Compound concentration 1000.0 nM
[6] = target: Serine/threonine-protein kinase B-raf (Homo sapiens) (UniProt P15056); details: Compound concentration 1000.0 nM
[7] = target: Calcium/calmodulin-dependent protein kinase type 1D (Homo sapiens) (UniProt Q8IU85); details: Compound concentration 1000.0 nM
[8] = target: Calcium/calmodulin-dependent protein kinase kinase 1 (Homo sapiens) (UniProt Q8N5S9); details: Compound concentration 1000.0 nM
[9] = target: Cyclin-dependent kinase 11A (Homo sapiens) (UniProt Q9UQ88); details: Compound concentration 1000.0 nM
[10] = target: Cyclin-dependent kinase 9 (Homo sapiens) (UniProt P50750); details: Compound concentration 1000.0 nM
[11] = target: Dual specificity protein kinase CLK4 (Homo sapiens) (UniProt Q9HAZ1); details: Compound concentration 1000.0 nM
[12] = target: Casein kinase I isoform epsilon (Homo sapiens) (UniProt P49674); details: Compound concentration 1000.0 nM
Chain of Casein kinase I isoform epsilon (Homo sapiens) (P49674 whole entry, looked up, canonical isoform): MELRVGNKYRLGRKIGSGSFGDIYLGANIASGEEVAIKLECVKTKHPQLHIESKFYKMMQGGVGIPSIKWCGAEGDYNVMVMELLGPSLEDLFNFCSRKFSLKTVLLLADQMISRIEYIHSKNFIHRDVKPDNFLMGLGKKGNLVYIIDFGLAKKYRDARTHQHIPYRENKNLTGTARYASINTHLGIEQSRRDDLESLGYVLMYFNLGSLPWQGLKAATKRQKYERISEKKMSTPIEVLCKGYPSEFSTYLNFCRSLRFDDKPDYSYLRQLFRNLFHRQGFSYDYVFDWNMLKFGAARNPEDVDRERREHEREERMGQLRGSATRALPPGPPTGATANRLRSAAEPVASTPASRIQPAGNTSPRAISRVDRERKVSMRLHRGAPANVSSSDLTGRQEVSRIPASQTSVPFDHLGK

[13] = test system: Epidermal growth factor receptor (Homo sapiens), P00533 [G719S]; details: Compound concentration 1000.0 nM
[14] = target: Ephrin type-A receptor 1 (Homo sapiens) (UniProt P21709); details: Compound concentration 1000.0 nM
Chain of Ephrin type-A receptor 1 (Homo sapiens) (P21709 whole entry): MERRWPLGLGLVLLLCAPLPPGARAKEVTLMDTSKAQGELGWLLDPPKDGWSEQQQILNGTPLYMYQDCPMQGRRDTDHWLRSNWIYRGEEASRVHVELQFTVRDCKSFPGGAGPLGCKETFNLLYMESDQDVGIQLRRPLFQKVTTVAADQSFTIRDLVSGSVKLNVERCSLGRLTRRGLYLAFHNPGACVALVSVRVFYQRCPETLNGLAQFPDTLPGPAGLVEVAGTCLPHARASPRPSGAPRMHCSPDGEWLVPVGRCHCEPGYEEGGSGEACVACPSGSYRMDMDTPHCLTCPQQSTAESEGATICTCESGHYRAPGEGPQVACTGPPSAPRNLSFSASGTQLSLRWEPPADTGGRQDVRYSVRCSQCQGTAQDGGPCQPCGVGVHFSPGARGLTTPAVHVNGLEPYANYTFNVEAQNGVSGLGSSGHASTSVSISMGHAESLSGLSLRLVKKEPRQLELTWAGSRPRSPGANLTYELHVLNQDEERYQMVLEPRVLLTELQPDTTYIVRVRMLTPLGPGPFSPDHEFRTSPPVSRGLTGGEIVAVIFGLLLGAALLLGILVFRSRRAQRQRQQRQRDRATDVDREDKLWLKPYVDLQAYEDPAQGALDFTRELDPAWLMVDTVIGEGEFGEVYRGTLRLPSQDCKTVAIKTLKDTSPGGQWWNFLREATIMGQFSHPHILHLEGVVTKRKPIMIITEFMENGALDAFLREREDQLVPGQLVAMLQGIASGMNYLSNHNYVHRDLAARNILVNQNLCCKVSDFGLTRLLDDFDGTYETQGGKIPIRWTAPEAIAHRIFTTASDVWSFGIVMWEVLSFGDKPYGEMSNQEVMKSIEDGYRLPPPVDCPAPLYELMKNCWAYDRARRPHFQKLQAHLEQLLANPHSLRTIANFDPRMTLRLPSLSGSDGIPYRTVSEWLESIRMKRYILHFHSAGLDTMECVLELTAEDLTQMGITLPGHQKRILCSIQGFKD

[15] = target: Ephrin type-B receptor 3 (Homo sapiens) (UniProt P54753); details: Compound concentration 1000.0 nM
[16] = test system: Receptor-type tyrosine-protein kinase FLT3 (Homo sapiens), P36888 [D835H]; details: Compound concentration 1000.0 nM
[17] = test system: Receptor-type tyrosine-protein kinase FLT3 (Homo sapiens), P36888 [D835V]; details: Compound concentration 1000.0 nM
[18] = test system: Receptor-type tyrosine-protein kinase FLT3 (Homo sapiens), P36888 [D835Y]; details: Compound concentration 1000.0 nM
[19] = target: Glycogen synthase kinase-3 beta (Homo sapiens) (UniProt P49841); details: Compound concentration 1000.0 nM
[20] = target: Mitogen-activated protein kinase kinase kinase kinase 1 (Homo sapiens) (UniProt Q92918); details: Compound concentration 1000.0 nM
[21] = target: Hormonally up-regulated neu tumor-associated kinase (Homo sapiens) (UniProt P57058); details: Compound concentration 1000.0 nM
[22] = target: Mast/stem cell growth factor receptor Kit (Homo sapiens) (UniProt P10721); details: Compound concentration 1000.0 nM
[23] = target: Leukocyte tyrosine kinase receptor (Homo sapiens) (UniProt P29376); details: Compound concentration 1000.0 nM
[24] = target: Serine/threonine-protein kinase MARK2 (Homo sapiens) (UniProt Q7KZI7); details: Compound concentration 1000.0 nM
[25] = target: Myosin light chain kinase family member 4 (Homo sapiens) (UniProt Q86YV6); details: Compound concentration 1000.0 nM
[26] = target: Serine/threonine-protein kinase 38 (Homo sapiens) (UniProt Q15208); details: Compound concentration 1000.0 nM
[27] = target: Mitogen-activated protein kinase 12 (Homo sapiens) (UniProt P53778); details: Compound concentration 1000.0 nM
[28] = target: Cyclin-dependent kinase 18 (Homo sapiens) (UniProt Q07002); details: Compound concentration 1000.0 nM
[29] = test system: Phosphatidylinositol 4,5-bisphosphate 3-kinase catalytic subunit alpha isoform (Homo sapiens), P42336 [E542K]; details: Compound concentration 1000.0 nM
Chain of Phosphatidylinositol 4,5-bisphosphate 3-kinase catalytic subunit alpha isoform (Homo sapiens), P42336 [E542K] (P42336 whole entry E542K, canonical isoform): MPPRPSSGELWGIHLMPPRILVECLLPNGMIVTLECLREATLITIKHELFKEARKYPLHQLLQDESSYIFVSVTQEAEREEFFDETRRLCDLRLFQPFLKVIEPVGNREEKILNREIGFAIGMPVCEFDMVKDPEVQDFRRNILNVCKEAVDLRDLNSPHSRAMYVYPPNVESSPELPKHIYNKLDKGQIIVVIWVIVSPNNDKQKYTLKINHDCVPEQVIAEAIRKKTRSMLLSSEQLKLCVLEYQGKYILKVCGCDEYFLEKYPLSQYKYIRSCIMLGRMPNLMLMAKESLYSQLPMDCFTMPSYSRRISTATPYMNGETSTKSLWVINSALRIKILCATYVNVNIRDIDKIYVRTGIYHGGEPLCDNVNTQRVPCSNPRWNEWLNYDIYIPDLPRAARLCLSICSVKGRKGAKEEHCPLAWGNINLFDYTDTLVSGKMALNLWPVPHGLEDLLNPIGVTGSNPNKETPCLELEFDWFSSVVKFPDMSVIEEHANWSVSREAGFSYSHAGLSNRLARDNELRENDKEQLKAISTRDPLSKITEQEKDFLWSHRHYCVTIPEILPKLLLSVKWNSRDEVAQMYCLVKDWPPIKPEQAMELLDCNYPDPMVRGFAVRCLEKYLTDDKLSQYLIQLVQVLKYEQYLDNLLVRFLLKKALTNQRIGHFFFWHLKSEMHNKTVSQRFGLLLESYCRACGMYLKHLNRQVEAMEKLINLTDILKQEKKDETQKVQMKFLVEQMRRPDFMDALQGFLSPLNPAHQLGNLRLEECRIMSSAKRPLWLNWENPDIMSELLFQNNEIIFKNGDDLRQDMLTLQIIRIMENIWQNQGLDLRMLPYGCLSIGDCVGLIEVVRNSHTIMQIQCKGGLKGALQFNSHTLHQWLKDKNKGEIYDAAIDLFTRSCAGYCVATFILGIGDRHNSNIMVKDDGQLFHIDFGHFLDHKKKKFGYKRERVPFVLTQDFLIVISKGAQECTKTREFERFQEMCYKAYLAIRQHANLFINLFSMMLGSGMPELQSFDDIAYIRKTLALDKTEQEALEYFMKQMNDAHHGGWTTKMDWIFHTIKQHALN

[30] = test system: Phosphatidylinositol 4,5-bisphosphate 3-kinase catalytic subunit alpha isoform (Homo sapiens), P42336 [E545K]; details: Compound concentration 1000.0 nM
[31] = test system: Phosphatidylinositol 4,5-bisphosphate 3-kinase catalytic subunit alpha isoform (Homo sapiens), P42336 [M1043I]; details: Compound concentration 1000.0 nM
Chain of Phosphatidylinositol 4,5-bisphosphate 3-kinase catalytic subunit alpha isoform (Homo sapiens), P42336 [M1043I] (P42336 whole entry M1043I, canonical isoform): as the sequence (P42336 whole entry E542K, canonical isoform) above, with K542E, M1043I counted along it

[32] = target: cGMP-dependent protein kinase 1 (Homo sapiens) (UniProt Q13976); details: Compound concentration 1000.0 nM
[33] = target: Dual serine/threonine and tyrosine protein kinase (Homo sapiens) (UniProt Q6XUX3); details: Compound concentration 1000.0 nM
[34] = target: Ribosomal protein S6 kinase alpha-2 (Homo sapiens) (UniProt Q15349); details: Compound concentration 1000.0 nM
[35] = target: Ribosomal protein S6 kinase alpha-6 (Homo sapiens) (UniProt Q9UK32); details: Compound concentration 1000.0 nM
[36] = target: NUAK family SNF1-like kinase 2 (Homo sapiens) (UniProt Q9H093); details: Compound concentration 1000.0 nM
[37] = target: Tyrosine-protein kinase Srms (Homo sapiens) (UniProt Q9H3Y6); details: Compound concentration 1000.0 nM
Chain of Tyrosine-protein kinase Srms (Homo sapiens) (Q9H3Y6 whole entry): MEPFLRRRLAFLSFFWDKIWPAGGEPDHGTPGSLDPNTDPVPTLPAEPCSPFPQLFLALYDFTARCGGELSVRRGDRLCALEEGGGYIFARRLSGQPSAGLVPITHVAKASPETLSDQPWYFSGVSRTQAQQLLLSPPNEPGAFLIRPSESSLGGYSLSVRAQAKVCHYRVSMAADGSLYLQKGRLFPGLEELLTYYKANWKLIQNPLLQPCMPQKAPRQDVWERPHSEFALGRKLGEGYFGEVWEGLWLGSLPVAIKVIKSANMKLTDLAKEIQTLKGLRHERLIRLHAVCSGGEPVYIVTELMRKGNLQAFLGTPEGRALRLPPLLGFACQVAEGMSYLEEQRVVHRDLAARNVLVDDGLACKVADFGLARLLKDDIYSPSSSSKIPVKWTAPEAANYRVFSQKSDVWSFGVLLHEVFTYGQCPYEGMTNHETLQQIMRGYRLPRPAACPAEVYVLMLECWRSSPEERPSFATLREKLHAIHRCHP

[38] = target: Serine/threonine-protein kinase 36 (Homo sapiens) (UniProt Q9NRP7); details: Compound concentration 1000.0 nM
[39] = target: Tyrosine-protein kinase SYK (Homo sapiens) (UniProt P43405); details: Compound concentration 1000.0 nM
[40] = target: TGF-beta receptor type-1 (Homo sapiens) (UniProt P36897); details: Compound concentration 1000.0 nM
Chain of TGF-beta receptor type-1 (Homo sapiens) (P36897 whole entry): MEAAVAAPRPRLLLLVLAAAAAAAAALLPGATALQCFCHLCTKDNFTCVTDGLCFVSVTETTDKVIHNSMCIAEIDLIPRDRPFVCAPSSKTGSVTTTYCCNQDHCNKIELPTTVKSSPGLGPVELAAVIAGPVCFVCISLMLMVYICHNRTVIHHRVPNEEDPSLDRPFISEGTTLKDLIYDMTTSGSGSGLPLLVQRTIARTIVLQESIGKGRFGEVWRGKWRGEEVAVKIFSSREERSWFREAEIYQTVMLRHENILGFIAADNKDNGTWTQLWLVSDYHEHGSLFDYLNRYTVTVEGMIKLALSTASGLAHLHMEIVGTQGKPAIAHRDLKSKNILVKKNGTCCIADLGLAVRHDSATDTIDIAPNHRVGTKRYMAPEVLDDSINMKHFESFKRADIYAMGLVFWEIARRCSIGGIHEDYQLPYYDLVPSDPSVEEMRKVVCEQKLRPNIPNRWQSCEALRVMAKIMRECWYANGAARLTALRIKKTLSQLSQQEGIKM

[41] = target: Transient receptor potential cation channel subfamily M member 6 (Homo sapiens) (UniProt Q9BX84); details: Compound concentration 1000.0 nM
[42] = target: Non-receptor tyrosine-protein kinase TYK2 (Homo sapiens) (UniProt P29597); details: Compound concentration 1000.0 nM
[43] = target: Tyrosine-protein kinase receptor TYRO3 (Homo sapiens) (UniProt Q06418); details: Compound concentration 1000.0 nM
[44] = target: Serine/threonine-protein kinase ULK3 (Homo sapiens) (UniProt Q6PHR2); details: Compound concentration 1000.0 nM
[45] = target: Beta-2 adrenergic receptor (Homo sapiens) (UniProt P07550); details: Compound concentration 10.0 uM
Chain of Beta-2 adrenergic receptor (Homo sapiens) (P07550 whole entry, looked up): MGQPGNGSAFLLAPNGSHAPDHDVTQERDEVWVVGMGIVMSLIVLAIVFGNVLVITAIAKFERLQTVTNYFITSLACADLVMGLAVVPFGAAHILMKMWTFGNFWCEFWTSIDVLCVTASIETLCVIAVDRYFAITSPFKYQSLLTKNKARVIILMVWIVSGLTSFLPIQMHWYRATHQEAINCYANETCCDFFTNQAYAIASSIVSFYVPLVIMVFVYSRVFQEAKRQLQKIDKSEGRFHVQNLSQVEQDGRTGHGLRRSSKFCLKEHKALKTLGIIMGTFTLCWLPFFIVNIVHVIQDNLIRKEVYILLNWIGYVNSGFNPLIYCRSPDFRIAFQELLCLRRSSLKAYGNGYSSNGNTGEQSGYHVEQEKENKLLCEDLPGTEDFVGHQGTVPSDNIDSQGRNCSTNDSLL

O=S(=O)(NC1CCC(c2cc(F)ccc2F)(S(=O)(=O)c2ccc(Cl)cc2)CC1)C(F)(F)F (stereo not given) [MRK-560]
IC50 [1]: < 0.5 nM (active)
residual activity [2]: 90%
residual activity [3]: 100%
residual activity [4]: 80%
residual activity [5]: 93%
residual activity [6]: 93%
residual activity [7]: 79%
residual activity [8]: 100%
residual activity [9]: 96%
residual activity [10]: 91%
residual activity [11]: 84%
residual activity [12]: 85%
residual activity [13]: 100%
residual activity [14]: 100%
residual activity [15]: 100%
residual activity [16]: 90%
residual activity [17]: 82%
residual activity [18]: 98%
residual activity [19]: 100%
residual activity [20]: 96%
residual activity [21]: 100%
residual activity [22]: 100%
residual activity [23]: 100%
residual activity [24]: 100%
residual activity [25]: 100%
residual activity [26]: 100%
residual activity [27]: 89%
residual activity [28]: 100%
residual activity [29]: 100%
residual activity [30]: 77%
residual activity [31]: 100%
residual activity [32]: 100%
residual activity [33]: 100%
residual activity [34]: 100%
residual activity [35]: 90%
residual activity [36]: 100%
residual activity [37]: 100%
residual activity [38]: 100%
residual activity [39]: 89%
residual activity [40]: 100%
residual activity [41]: 95%
residual activity [42]: 100%
residual activity [43]: 70%
residual activity [44]: 82%
inhibition [45]: 9.91%
